In patent publication US6353004B1, “Peripherally acting anti-pruritic opiates” (Adolor Coporation, priority 1997, dated 2002):

Assays:
[1] = tested on: Compound 48/80-induced scratching; experiment: mouse scratch model: antagonism of Compound 48/80-induced scratching; type: in vivo, male Swiss albino mice; conditions: s.c.; for Mean % Inhibition of Scratching: Compound 48/80 challenge, scratching counted for 30 min; for antagonism of Compound 48/80-induced scratching (in words): mice
Procedure: Testing was performed in a mouse scratch model under blind conditions.
Groups of 8-10 male Swiss albino mice (Hilltop Lab Animals, Inc., Scottsdale, Pa.), weighing […], were used in the testing. They were housed under controlled temperature of 23-25° C. Food and water were freely available. Before the experiments, the mice were weighed, put into individual boxes and allowed to acclimate for 30 min.
Vehicle used to dissolve the test compounds: 20% w/w cremophor EL.
100 μl of the vehicle (3-5 doses, n=8-10) was injected s.c. into the back of the neck of mice 20 min. before challenging them with 100 μl of Compound 48/80 (2 mg/ml; […]) injected s.c. into the back of the neck.
To each mouse of a group of 8-10 mice previously subjected to the standard challenge various doses of the compounds, to be tested for anti-pruritic activity, were administered s.c. into the back of the neck.
For each group of 8-10 mice, the mean values for scratching were normalized to relative % antagonism of scratching and then plotted vs. dose of test compounds. Interval estimates of mean A50 were determined by nonlinear regression analysis (Kaleida Graph) and mean % inhibition of scratching was calculated.

[2] = i.v. administration; cited from earlier work

Compound	Mean % Inhibition of Scratching ([1]; dose 2.5 mg/kg)	Mean % Inhibition of Scratching ([1]; dose 5.0 mg/kg)	Mean % Inhibition of Scratching ([1]; dose 10.0 mg/kg)	antagonism of Compound 48/80-induced scratching (in words) [1]	Mean % Inhibition of Scratching ([1]; dose 1.0 mg/kg)	generalized itching, share of patients [2]
Cl.O=C(O)C1(c2ccccc2)CCN(CCC(c2ccccc2)(c2ccccc2)c2ccccn2)CC1 [(1), 1-[3,3-diphenyl-3-(2-pyridyl)propyl]-4-phenyl-4-piperidinecarboxylic acid hydrochloride]	32%	65%	83%	antagonized Compound 48/80-induced scratching in a dose-related manner		
OC1(Cc2ccc(Cl)cc2)CCN(CCC(c2ccccc2)(c2ccccc2)c2ccccc2)CC1 [(2), 1-(3,3,3-triphenylpropyl)-4-hydroxy-4-p-chlorobenzylpiperidine]	68%	94%		antagonized Compound 48/80-induced scratching in a dose-related manner	35%	
CN(C)C(=O)C(CCN1CCC(O)(c2ccc(Cl)cc2)CC1)(c1ccccc1)c1ccccc1.Cl [(3), reference compound]				antagonized Compound 48/80-induced scratching in a dose-related manner		
CN1CC[C@]23c4c5ccc(O)c4O[C@H]2[C@@H](O)C=C[C@H]3[C@H]1C5 [morphine]						about 1%
